Measurements from patent publication US20070191396A1, “Fungicidal mixtures” (BASF Aktiengesellschaft, priority 2004, published 2007).

System: Pyrenophora teres
Assay: Activity against net blotch of barley caused by Pyrenophora teres, 1 day protective application
Format: in vivo
Details: individual active compound, barley seedlings "Hanna", assessed after 6 days
Method: The active compounds, separately, were prepared as a stock solution comprising 25 mg of active compound which was made up to 10 ml using a mixture of acetone and/or DMSO and the emulsifier Uniperol® EL (wetting agent having an emulsifying and dispersing action based on ethoxylated alkylphenols) in a ratio by volume of solvent/emulsifier of 99:1. The mixture was then made up to 100 ml with water. The active compounds or mixtures were diluted or mixed with water to the stated concentration.
Activity against net blotch of barley caused by Pyrenophora teres, 1 day protective application
Leaves of potted barley seedlings of the “Hanna” cultivar were sprayed to runoff point with an aqueous suspension having the concentration of active compound stated below. 24 hours after the spray coating had dried on, the test plants were inoculated with an aqueous spore suspension of Pyrenophora [syn. Drechslera] teres, the net blotch pathogen. […] After 6 days, the extent of the development of the disease was determined visually in % infection of the total leaf area.
The visually determined percentages of infected leaf areas were converted into efficacies in % of the untreated control:
The efficacy (E) is calculated as follows using Abbot's formula: E=(1−[…] )·100 α corresponds to the fungal infection of the treated plants in % and β corresponds to the fungal infection of the untreated (control) plants in % […]

CC1CCN(c2c(-c3c(F)cc(F)cc3F)c(Cl)nc3ncnn23)CC1 [I, 5-chloro-7-(4-methylpiperidin-1-yl)-6-(2,4,6-trifluorophenyl)[1,2,4]triazolo[1,5-a]pyrimidine]
Efficacy in % of the untreated control (1.25 ppm in the spray liquor): 55 % of the untreated control | Efficacy in % of the untreated control (5 ppm in the spray liquor): 78 % of the untreated control
